Test results from ChEMBL document CHEMBL3714767, “Imidazothiadiazole and imidazopyridazine derivatives as protease activated receptor 4 (PAR4) inhibitors for treating platelet aggregation” (2013).
Active and inactive are the calls of the source. The calls are words filed in the database; no cut-off is given here. Where a SMILES comes first, the peptide text is derived from it. [ ]: non-standard residue; d: D form. The star is where a group is joined. Phe(4-guanidino) = N=C(N)Nc1ccc(C[C@H](N)C(=O)O)cc1; Phe(4-F) = N[C@@H](Cc1ccc(F)cc1)C(=O)O; X1 = O=C(/C=C/c1ccccc1)*

Columns and labels:
[1] = target: T1, Proteinase-activated receptor 4 (Homo sapiens) (UniProt Q96RI0); assay: Antagonist activity against PAR4 in washed human platelets assessed as inhibition of alpha-thrombin-induced platelet aggregation at 30 to 300 nM pre-incubated for 20 mins before alpha-thrombin addition and measured over 100 to 500 secs by optical aggregometry; format: functional
T1 sequence (whole entry): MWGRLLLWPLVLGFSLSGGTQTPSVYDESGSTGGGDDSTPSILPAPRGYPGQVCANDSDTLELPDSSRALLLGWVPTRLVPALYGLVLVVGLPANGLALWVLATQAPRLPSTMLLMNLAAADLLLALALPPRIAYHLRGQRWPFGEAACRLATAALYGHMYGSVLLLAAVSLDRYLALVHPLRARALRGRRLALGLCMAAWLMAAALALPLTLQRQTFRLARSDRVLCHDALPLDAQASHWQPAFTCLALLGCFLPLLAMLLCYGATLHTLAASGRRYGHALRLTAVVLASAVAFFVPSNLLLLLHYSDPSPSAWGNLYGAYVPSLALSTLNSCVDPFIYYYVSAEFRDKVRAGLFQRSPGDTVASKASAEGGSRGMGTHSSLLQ

[2] = target: T2, Proteinase-activated receptor 1 (Homo sapiens) (UniProt P25116); assay: Antagonist activity against PAR1 in washed human platelets assessed as inhibition of alpha-thrombin-induced platelet aggregation at 30 to 300 nM pre-incubated for 20 mins before alpha-thrombin addition and measured over 100 to 500 secs by optical aggregometry; format: functional
T2 sequence (whole entry): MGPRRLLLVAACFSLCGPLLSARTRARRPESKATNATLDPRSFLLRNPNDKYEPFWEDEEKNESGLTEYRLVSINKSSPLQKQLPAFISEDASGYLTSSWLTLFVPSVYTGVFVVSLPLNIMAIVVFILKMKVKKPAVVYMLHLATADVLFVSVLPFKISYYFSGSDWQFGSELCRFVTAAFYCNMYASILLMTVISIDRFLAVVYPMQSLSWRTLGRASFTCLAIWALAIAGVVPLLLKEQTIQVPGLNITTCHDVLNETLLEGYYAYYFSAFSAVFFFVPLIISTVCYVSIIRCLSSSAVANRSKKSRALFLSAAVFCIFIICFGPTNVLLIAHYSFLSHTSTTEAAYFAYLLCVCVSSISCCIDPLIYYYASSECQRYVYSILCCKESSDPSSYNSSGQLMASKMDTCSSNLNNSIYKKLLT

SMILES | inhibition [1] | inhibition [2]
COc1cc(OCc2cccc(-c3ccc(C#N)nc3)c2)c2cc(-c3cn4nc(OC)sc4n3)oc2c1 | Active | –
CC(C)C[C@H](NC(=O)[C@H](Cc1ccc(NC(=N)N)cc1)NC(=O)[C@H](Cc1ccc(F)cc1)NC(=O)/C=C/c1ccccc1)C(=O)N[C@@H](CCCNC(=N)N)C(=O)N[C@@H](CCCNC(=N)N)C(=O)O (X1-[Phe(4-F)][Phe(4-guanidino)]LRR-OH) | – | Active
